Laboratory results taken from US20250241926A1, “HETEROCYCLIC COMPOUNDS FOR USE IN THE TREATMENT OF CANCER” (ARTIOS PHARMA LIMITED, priority 2021, published 2025).

Target: T1, Human Polθ polymerase domain (aa1820-2590) (Homo sapiens, UniProt O75417)
T1 construct: Human Polθ polymerase domain (aa1820-2590) was expressed in E. Coli; made in house; host or cells: E. coli
T1 sequence (O75417 1820-2590): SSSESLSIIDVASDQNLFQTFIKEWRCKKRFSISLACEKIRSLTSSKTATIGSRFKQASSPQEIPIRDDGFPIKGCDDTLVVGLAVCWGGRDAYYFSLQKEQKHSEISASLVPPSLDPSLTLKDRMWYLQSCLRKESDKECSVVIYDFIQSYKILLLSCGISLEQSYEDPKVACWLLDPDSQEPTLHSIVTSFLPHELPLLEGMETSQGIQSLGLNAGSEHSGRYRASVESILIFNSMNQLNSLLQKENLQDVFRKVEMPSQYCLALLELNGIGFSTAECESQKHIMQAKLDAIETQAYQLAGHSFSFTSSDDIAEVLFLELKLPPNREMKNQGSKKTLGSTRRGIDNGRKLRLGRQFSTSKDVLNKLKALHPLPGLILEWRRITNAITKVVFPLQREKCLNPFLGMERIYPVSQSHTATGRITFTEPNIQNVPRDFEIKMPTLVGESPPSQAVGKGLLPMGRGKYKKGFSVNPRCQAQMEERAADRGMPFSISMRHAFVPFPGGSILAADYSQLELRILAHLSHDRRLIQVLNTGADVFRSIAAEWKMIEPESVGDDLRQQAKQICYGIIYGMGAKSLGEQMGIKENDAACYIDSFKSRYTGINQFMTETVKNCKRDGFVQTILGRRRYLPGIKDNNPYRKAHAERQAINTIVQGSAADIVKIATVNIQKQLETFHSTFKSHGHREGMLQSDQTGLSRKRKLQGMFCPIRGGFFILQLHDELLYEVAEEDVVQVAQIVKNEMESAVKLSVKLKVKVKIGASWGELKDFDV
Assay: Polθ Polymerase Domain Kinact/Kl Assay (PicoGreen)
Type: biochemical
Details: covalent inhibitors, kobs vs [I] fit, 0.8 nM Polθ, 100 nM DNA substrate
Procedure: Polθ Polymerase Domain Kinact/Kl Assay
A PicoGreen assay was used to measure the Kinact and Kl values of covalent compounds that inhibit the activity of Polθ in vitro.
Human Polθ polymerase domain (aa1820-2590) was expressed in E. Coli, purified, aliquoted and stored at −80° C. until required. Polθ substrate was generated from a 1.2:1 mix of DNA II Short to DNA II Long to give a final concentration of […] substrate in annealing buffer (20 mM Tris pH 7.5, 50 mM NaCl). The substrate was heated in 50 mL aliquots to 95° C. in a heating block for 5 min before the heating block switched off, the reaction left to cool to rt and stored at −20° C. until required.
Assay measurements were performed with 1× buffer comprising 25 mM Tris pH 7.5, 12.5 mM NaCl, […], 5% (v/v) glycerol, 0.01% v/v Triton x-100, 0.1 mg/ml BSA, 1 mM DTT. Test compounds were prepared by dilution in 100% DMSO to give a 12 μM intermediate stock of each (100× final top concentration). 100 nL of 23× 1:1.5-fold serial dilutions and a DMSO only control were dispensed using the Tecan dispenser into Greiner 384 well black low volume plates (product code 784076). DMSO concentration was maintained at 1% of the final assay volume by back filling with DMSO.
2× Working stock of substrate (200 nM of DNA substrate and […] dNTPs) and enzyme (1.4 nM Polθ) were made up in assay buffer. 5 μL/well of both enzyme and substrate 2× solutions were dispensed using a Tempest dispenser (Formulatrix) into assay plates that had been pre-dispensed with compound to give a final assay concentration of 100 nM DNA substrate, […] dNTPs and 0.8 nM Polθ. To stop the reaction, […] of a solution containing 25 mM Tris-HCl pH 7.5 and 20 mM EDTA was added at […] (t=0, 2.5, 5, 7.5, 10, 12.5, 15, 20, 25, 30, 35, 40, 45, 50, 55 and 60 min) using the Tempest's time delay function. The plates were covered during the time course to prevent evaporation. After completing the assay, 5 μL of detection reagent (25 mM Tris-HCl pH 7.5 and 2.5% (v/v) PicoGreen) was dispensed into the wells using a Tempest liquid handler (Formulatrix) and plates subsequently read on the CLARIOstar Plus (BMG Labtech) using the default optical settings for fluorescein and the auto gain/focus settings.
All data analysis was carried out using GraphPad Prism V. 8 (GraphPad Software Inc, San Diego, CA) Time course data for each inhibitor concentration was fitted to equation 1 to determine kobs values.^1 Any time points where the control (DMSO alone) reaction was no longer linear were excluded from the analysis.
A secondary plot of kobs vs [I] is used to determine the Kinact and Kl parameters (for a 2-step covalent inhibitor) by fitting to equation 2.1
[formula] • 1) Evaluation of Enzyme Inhibitors in Drug Discovery (Ch9), R. A Copeland, Wiley, 2nd Edition 2013.

kinact/KI | Compound
770000 M⁻¹ s⁻¹ | Cc1cc(C(F)(F)F)c(C#N)c(N[C@H]2CCN(CC(O)CN3CCN(C(=O)/C=C/CN(C)C)CC3)c3c(F)cccc3N(C)C2=O)n1 (mixture of isomers) [Example 32A, 2-(((S)-6-((S/R)-3-(4-((E)-4-(Dimethylamino)but-2-enoyl)piperazin-1-yl)-2-hydroxypropyl)-7-fluoro-1-methyl-2-oxo-1,2,3,4,5,6-hexahydrobenzo[b][1,4]diazocin-3-yl)amino)-6-methyl-4-(trifluoromethyl)nicotinonitrile]
190000 M⁻¹ s⁻¹ | (S)-2-((6-(2-(3-(4-Acrylo- ylpiperazin-1-yl)azetidin- 1-yl)ethyl)-7-fluoro-1- methyl-2-oxo-1,2,3,4,5,6- hexahydrobenzo[b][1,4] diazocin-3-yl)amino)-6- methyl-4-(trifluorometh- yl)nicotinonitrile [Example 10]

Same assay, conditions: covalent inhibitors, kobs vs [I] fit, 0.8 nM Polθ, 100 nM DNA substrate, read-out: Kinact/KI

kinact/KI | Compound
150000 M⁻¹ s⁻¹ | C=CC(=O)N1CC2(CC(CN3CC[C@H](Nc4nc(C)cc(C(F)(F)F)c4C#N)C(=O)N(C)c4ccccc43)C2)C1 [Example 52, (S)-2-((6-((2-Acryloyl-2-azaspiro[3.3]heptan-6-yl)methyl)-1-methyl-2-oxo-1,2,3,4,5,6-hexahydrobenzo[b][1,4]diazocin-3-yl)amino)-6-methyl-4-(trifluoromethyl)nicotinonitrile]
630000 M⁻¹ s⁻¹ | Cc1cc(C(F)(F)F)c(C#N)c(N[C@H]2CCN(CCN3CC4(CN(C(=O)/C=C/CN(C)C)C4)OC3=O)c3c(F)cccc3N(C)C2=O)n1 [Example 24, (S,E)-2-((6-(2-(2-(4-(Dimethylamino)but-2-enoyl)-6-oxo-5-oxa-2,7-diazaspiro[3.4]octan-7-yl)ethyl)-7-fluoro-1-methyl-2-oxo-1,2,3,4,5,6-hexahydrobenzo[b][1,4]diazocin-3-yl)amino)-6-methyl-4-(trifluoromethyl)nicotinonitrile]
550000 M⁻¹ s⁻¹ | C=CC(=O)N1CC(O[C@@H]2CN(CCN3CC[C@H](Nc4nc(C)cc(C(F)(F)F)c4C#N)C(=O)N(C)c4cccc(F)c43)C[C@H]2O)C1 (single isomer, unassigned) [Example 65B]
560000 M⁻¹ s⁻¹ | CO[C@H]1CN(C(=O)/C=C/CN(C)C)C[C@@H]1C(=O)N(C)CCN1CC[C@H](Nc2nc(C)cc(C(F)(F)F)c2C#N)C(=O)N(C)c2cccc(F)c21 (relative stereo) [Example 28, (rel-3S,4R)—N-(2-((S)-4-((3-Cyano-6-methyl-4-(trifluoromethyl)pyridin-2-yl)amino)-10-fluoro-6-methyl-5-oxo-3,4,5,6-tetrahydrobenzo[b][1,4]diazocin-1(2H)-yl)ethyl)-1-((E)-4-(dimethylamino)but-2-enoyl)-4-methoxy-N-methylpyrrolidine-3-carboxamide]
680000 M⁻¹ s⁻¹ | Cc1cc(C(F)(F)F)c(C#N)c(N[C@H]2CCN(CC(O)CN3CCN(C(=O)/C=C/CN(C)C)CC3)c3cc(F)ccc3N(C)C2=O)n1 (single isomer, unassigned) [Example 34B]
1.3e+06 M⁻¹ s⁻¹ | C=CC(=O)N1CC(c2noc(CN3CC[C@H](Nc4nc(C)cc(C(F)(F)F)c4C#N)C(=O)N(C)c4cccc(F)c43)n2)C1 [Example 67, (S)-2-((6-((3-(1-Acryloylazetidin-3-yl)-1,2,4-oxadiazol-5-yl)methyl)-7-fluoro-1-methyl-2-oxo-1,2,3,4,5,6-hexahydrobenzo[b][1,4]diazocin-3-yl)amino)-6-methyl-4-(trifluoromethyl)nicotinonitrile]
810000 M⁻¹ s⁻¹ | Cc1cc(C(F)(F)F)c(C#N)c(N[C@H]2CCN(CCCOC3CN(C(=O)/C=C/[C@H]4CCCN4C)C3)c3c(F)cccc3N(C)C2=O)n1 [Example 55, 2-(((S)-7-Fluoro-1-methyl-6-(3-((1-((E)-3-((R)-1-methylpyrrolidin-2-yl)acryloyl)azetidin-3-yl)oxy)propyl)-2-oxo-1,2,3,4,5,6-hexahydrobenzo[b][1,4]diazocin-3-yl)amino)-6-methyl-4-(trifluoromethyl)nicotinonitrile]
130000 M⁻¹ s⁻¹ | C=CC(=O)N1CC(c2nnc(CN3CC[C@H](Nc4nc(C)cc(C(F)(F)F)c4C#N)C(=O)N(C)c4cccc(F)c43)[nH]2)C1 [Example 68, (S)-2-((6-((5-(1-Acryloylazetidin-3-yl)-4H-1,2,4-triazol-3-yl)methyl)-7-fluoro-1-methyl-2-oxo-1,2,3,4,5,6-hexahydrobenzo[b][1,4]diazocin-3-yl)amino)-6-methyl-4-(trifluoromethyl)nicotinonitrile]
70000 M⁻¹ s⁻¹ | C=CC(=O)N1CC(OCCN2CC[C@H](Nc3nc(C)cc(C(F)(F)F)c3C#N)C(=O)N(C)c3ccccc32)C1 [Example 51, (S)-2-((6-(2-((1-Acryloylazetidin-3-yl)oxy)ethyl)-1-methyl-2-oxo-1,2,3,4,5,6-hexahydrobenzo[b][1,4]diazocin-3-yl)amino)-6-methyl-4-(trifluoromethyl)nicotinonitrile]
1e+06 M⁻¹ s⁻¹ | Cc1cc(C(F)(F)F)c(C#N)c(N[C@H]2CCN(CCCN3CCN(C(=O)/C=C/CN(C)C)CC3)c3cc(F)ccc3N(C)C2=O)n1 [Example 39, (S,E)-2-((6-(3-(4-(4-(Dimethylamino)but-2-enoyl)piperazin-1-yl)propyl)-8-fluoro-1-methyl-2-oxo-1,2,3,4,5,6-hexahydrobenzo[b][1,4]diazocin-3-yl)amino)-6-methyl-4-(trifluoromethyl)nicotinonitrile]
460000 M⁻¹ s⁻¹ | C=CC(=O)N1CC2(CN(CCN3CC[C@H](Nc4nc(C)cc(C(F)(F)F)c4C#N)C(=O)N(C)c4ccc(Cl)cc43)C2)C1 [Example 7, (S)-2-((6-(2-(6-Acryloyl-2,6-diazaspiro[3.3]heptan-2-yl)ethyl)-8-chloro-1-methyl-2-oxo-1,2,3,4,5,6-hexahydrobenzo[b][1,4]diazocin-3-yl)amino)-6-methyl-4-(trifluoromethyl)nicotinonitrile]
1.8e+06 M⁻¹ s⁻¹ | C=CC(=O)N1CC2(CN(CCN3CC[C@H](Nc4nc(C)cc(C(F)(F)F)c4C#N)C(=O)N(C)c4cccc(Cl)c43)C[C@@H](C)N2)C1 [Example 64, 2-(((S)-6-(2-((R)-2-Acryloyl-6-methyl-2,5,8-triazaspiro[3.5]nonan-8-yl)ethyl)-7-chloro-1-methyl-2-oxo-1,2,3,4,5,6-hexahydrobenzo[b][1,4]diazocin-3-yl)amino)-6-methyl-4-(trifluoromethyl)nicotinonitrile]
110000 M⁻¹ s⁻¹ | Cc1cc(C(F)(F)F)c(C#N)c(N[C@H]2CCN(CCN3CCN(C(=O)/C=C/CN(C)C)CC3)c3ccccc3N(C)C2=O)n1 [Example 5, (S,E)-2-((6-(2-(4-(4-(Dimethylamino)but-2-enoyl)piperazin-1-yl)ethyl)-1-methyl-2-oxo-1,2,3,4,5,6-hexahydrobenzo[b][1,4]diazocin-3-yl)amino)-6-methyl-4-(trifluoromethyl)nicotinonitrile]
180000 M⁻¹ s⁻¹ | C=CC(=O)N1CCN2CCN(CCN3CC[C@H](Nc4nc(C)cc(C(F)(F)F)c4C#N)C(=O)N(C)c4cccc(F)c43)CC2C1 (single isomer, unassigned) [Example 72A]
